The values below come from patent US5747051A, “Skin care compositions containing an amide of a hydroxy fatty acid and a retinoid” (Elizabeth Arden Co., Division of Conopco, Inc., priority 1996, dated 1998).

The subject of experiment [1] is transglutaminase 1 (TG1) in human keratinocytes. The experiment in a line: Transglutaminase 1 (TG1) ELISA assay of keratinocyte differentiation, normalised to DNA, Example 2. In kind it is cell-based. Conditions: for inhibiting keratinocyte TG1 level when used alone, in words: 2.5×10^-7 M retinol or 10^-6 M lactamide-DEA alone, compared with retinoic acid 2.5×10^-7 M. The protocol: Human keratinocytes, isolated from neonatal foreskin by trypsin treatment were grown in Dulbecco Modification Eagle (DME) Hams F12 (1:1) medium/10% fetal calf serum in the presence of irradiated 3T3 mouse fibroblasts for establishing dividing keratinocyte colonies. Cells were grown under the above condition until their second passage and kept frozen for future use. Frozen second passage keratinocytes were thawed and plated into the above medium and grown for five days before they were switched to a serum-free MCDB 153-based medium keratinocyte growth medium (KGM) from Clonetics Corporation, San Diego, Calif. containing 0.15 mM Ca, or keratinocyte serum-free media (KSFM) from GIBCO containing 0.09 mM Ca). On day 7, when the cells were 80-90% confluent, they were trypsinized and plated in the serum-free medium for the various experiments.
(§1) During the process of terminal differentiation in the epidermis, a 15 nm thick layer of protein, known as the cornified envelope (CE) is formed on the inner surface of the cell periphery. The CE is composed of numerous distinct proteins which have been cross-linked together by the formation of N ^ε -(γ-glutamyl) lysine isodipeptide bonds catalyzed by the action of at least two different transglutaminases (TGases) expressed in the epidermis. TGase I is expressed in abundance in the differentiated layers of the epidermis, especially the granular layer, but is absent in the undifferentiated basal epidermis. Thus TGase I is a useful marker of epidermal keratinocyte differentiation with high TGase I levels indicating a more differentiated state. An ELISA based TGase I assay, using a TGase I antibody, was used to assess the state of differentiation of the cultured keratinocytes in the examples that follow.
Keratinocytes (cultured as described above) were plated in 96 well plates at a density of 3,000 cells per well in 200 μl of cell culture media. After incubation for four days, the media was changed to media containing test compounds (six replicates per test). The cells were cultured for a further 72 hours after which time the media was aspirated and the plates stored at -70° C. After the plates were removed from the freezer, the cells were further freezed fractured by freezing and thawing and then washed 3× with PBS. The cells were incubated for one hour at room temperature (R/T) with TBS/5% BSA buffer. Cells were then incubated with 100 μl of monoclonal anti-human transglutaminase (IgG) mouse antibody (primary antibody) obtained from Biomedical Technologies Inc. diluted 1:2000 in TBS/1% BSA buffer for two hours at 37° C., and then rinsed six times with wash buffer (TBS/1% BSA/0.05% Tween-20). Cells were next incubated with 100 μl of Fab fragment, peroxidase conjugated anti-mouse IgG antibody (secondary antibody) from Amersham diluted 1:4,000 in wash buffer for two hours at 37° C. and then rinsed three times with wash buffer and three times with PBS. Cells were incubated with substrate solution (4 mg o-phenylene diamine and 3.3 μl 30% H2 O2 in 1O ml 0.1M citrate buffer, pH 5.0) for five minutes at R/T and in darkness (under aluminum foil). The reaction was stopped by the addition of 50 μl 4N H2SO4. The absorbance of samples was read at 492 nm in the plate reader. Out of the six replicates, four were treated with both antibodies, two were treated only with the secondary antibody (i.e., to determine the background binding of the enzyme conjugated antibody). Transglutaminase I levels were determined by subtracted background from the readings from each treatment and determining the mean s.d. for the replicates exposed to both antibodies.
The level of TGase-1 detected after treatment of the cells could be influenced by cell number, i.e., the greater the number of cells the greater the level of TGase-1 detected. The level of TGase-1 was normalized to DNA content of the cells in the same well thus eliminating variation due to differences in cell number. […]

In experiment [2] the test system is Transglutaminase (TGase I) in human keratinocytes. The experiment is described as follows: Transglutaminase (TGase I ELISA) assay of keratinocyte differentiation, normalized to DNA, Example 1. The experiment is classed as cell-based. The following applies: 2.5×10^-7 M, 2.5×10^-8 M and 2.5×10^-9 M. The protocol:
Human keratinocytes, isolated from neonatal foreskin by trypsin treatment were grown in Dulbecco Modification Eagle (DME) Hams F12 (1:1) medium/10% fetal calf serum in the presence of irradiated 3T3 mouse fibroblasts for establishing dividing keratinocyte colonies. Cells were grown under the above condition until their second passage and kept frozen for future use. […] On day 7, when the cells were 80-90% confluent, they were trypsinized and plated in the serum-free medium for the various experiments.
as §1, with “Thus TGase I is a useful marker of epidermal keratinocyte differentiation with high TGase I levels indicating a more differentiated state. An ELISA based TGase I assay, using a TGase I antibody, was used to assess the state of differentiation of the cultured keratinocytes in the examples that follow.” left out
Keratinocytes (cultured as described above) were plated in 96 well plates at a density of 3,000 cells per well in 200 μl media. […] The absorbance of samples was read at 492 nm in the plate reader. […] TGase levels were determined by subtracting background from the readings from each treatment and determining mean ±s.d. for the replicates exposed to both Ab.
The level of TGase-1 was normalized to DNA content of the cells in the same well thus eliminating variation due to differences in cell number. DNA quantitation is a particularly useful indicator of cell number, including keratinocyte cell number, because each cell has to all intents and purposes an identical genome and therefore an identical quantity of DNA The total DNA content of a well of cells therefore is directly proportional to the cell number in that well. Quantitation of DNA was used to normalize the TGase data to cell number. […]

The mark [3] stands for this setting: Homo sapiens, Keratinocyte, Table 2A, 2.5 × 10^-8 M, 72 hour treatment, n = 3, read-out: TGase/DNA (% control).
Setting [4] is: Homo sapiens, Keratinocyte, Table 2B, 2.5 × 10^-7 M, 72 hour treatment, n = 3, read-out: TGase/DNA (% control).
Where [5] appears, read: Table 2A, 2.5 × 10^-8 M, 72 hour treatment, n = 3, control 18.42 ± 3.88.
Setting [6] is: Table 2B, 2.5 × 10^-7 M, 72 hour treatment, n = 3, control 64.11 ± 2.91.

SMILES strings stand for the structures.

On to `CCCCCCCCCCC(O)CC(N)=O` (stereo not drawn) [C13-β-hydroxy-acid amide, C13 β-hydroxy acid amide], for which the “inhibitory effect on keratinocyte TG1 level when used alone, in words” value in experiment [1] (10^-8 M, amide alone) was “no inhibitory effect”. Besides, the activity at 0.01 µM in experiment [1] (Homo sapiens, Keratinocyte, Table 2A, 10^-8 M, 72 hour treatment, n = 3, read-out: TGase/DNA (% control)) worked out at 101%. The “mean TGase/DNA × 10^5 ± s.d” value in experiment [1] (Table 2A, 10^-8 M, 72 hour treatment, n = 3, control 18.42 ± 3.88) came to 18.53 ± 4.58.
As to `CC1=C(/C=C/C(C)=C/C=C/C(C)=C/CO)C(C)(C)CCC1` [Retinol, retinol], in experiment [1], the “inhibiting keratinocyte TG1 level when used alone, in words” value is on record as “less effective”; the “effect on keratinocyte differentiation, in words (summary of Examples 1 and 2)” value is reported as “completely ineffective at decreasing keratinocyte differentiation”. Also, the activity at 0.025 µM in experiment [1] (setting [3]) stood at 79%. For the same molecule, the activity at 0.25 µM in experiment [1] (setting [4]) is 91%. The “mean TGase/DNA × 10^5 ± s.d” value in experiment [1] (setting [5]) is 14.62 ± 2.99. Also, the “mean TGase/DNA × 10^5 ± s.d” value in experiment [1] (setting [6]) was determined as 58.47 ± 6.25. The “decrease in transglutaminase level, dose dependence” value in experiment [2] is “dose dependent”.
Consider `CC(O)C(=O)NCCO` (centres unmarked) [lactamide-MEA, lactamide monoethanolamide], for which the “inhibiting keratinocyte TG1 level when used alone, in words” value in experiment [1] is reported as “less effective”. Moreover, the activity at 1 µM in experiment [1] (Homo sapiens, Keratinocyte, Table 2B, 10^-6 M, 72 hour treatment, n = 3, read-out: TGase/DNA (% control)) turned out to be 86%. For the same molecule, in experiment [1] (Table 2B, 10^-6 M, 72 hour treatment, n = 3, control 64.11 ± 2.91), the “mean TGase/DNA × 10^5 ± s.d” value came out at 55.22 ± 2.43.
On to `CC1=C(/C=C/C(C)=C/C=C/C(C)=C/C(=O)O)C(C)(C)CCC1` [Retinoic acid, retinoic acid], for which the “effect on keratinocyte differentiation, in words (summary of Examples 1 and 2)” value in experiment [1] is “in a dose dependent manner, decreased keratinocyte differentiation”. Moreover, in experiment [1] (setting [3]), the activity at 0.025 µM was determined as 6%. Moreover, the activity at 0.25 µM in experiment [1] (setting [4]) amounted to 73%. Besides, the figures for the “mean TGase/DNA × 10^5 ± s.d” value in experiment [1] (setting [5]) and in experiment [1] (setting [6]) were 1.05 ± 1.05 and 46.71 ± 7.83, respectively. For the same molecule, the “decrease in transglutaminase level, dose dependence” value in experiment [2] is recorded as “dose dependent”. In addition, in experiment [2] (vs ethanol control and corresponding retinol treatments), the “effect on keratinocyte differentiation (transglutaminase level), in words” value is “decreased keratinocyte differentiation over both the ethanol control and did so to a significantly greater extent than each of the corresponding 2.5×10^-7 M, 2.5×10^-8 M and 2.5×10^-9 M retinol treatments”.
